Results reported in patent US20070053841A1, “USE OF 1,1,1,2-TETRAFLUOROETHANE FOR MEASURING LUNG FUNCTION, ESPECIALLY FOR DETERMINING THE FUNCTIONAL RESIDUAL CAPACITY (FRC) OF THE LUNGS” (Drager Medical AG & Co. KG, priority 2005, published 2007).

Assay: blood-gas partition coefficient L (solubility of the gas in the blood)
Type: physicochemical
Conditions: gas 1 = R 134a, gas 2 = R 227; equilibrium between gas dissolved in blood and gas phase
Experimental: The solubility of gases in the blood can be described by the blood-gas partition coefficient L, which describes the ratio of the volume percentages between gas dissolved in the blood and gas present in the gas phase. The prerequisite for this is the presence of an equilibrium with identical partial pressures of the gas in the phase in which it is dissolved in the blood and in the gas phase. Lowest possible solubility of the tracer gas in the blood is desirable for the lung function diagnostic tests and especially for the determination of the FRC, because what we wish to ultimately determine is the lung volume rather than the quantity of blood in the body. By using at least two gases with different solubilities in blood, the FRC measurement can be corrected with respect to the solubility in blood. The subscripts 1 and 2 below designate the two gases, which may stand, e.g., for R 134a and R 227. It can be assumed below, without restricting the generality, that L1>L2, so that the FRC measured with gas 1 (for example, R 134a) will be greater than that determined with gas 2 (for example, R 227). The blood volume can be determined from the difference of the FRC values: [formula] […] In case of R 134a and R 227, the coefficient L1/L2 is approx. 4, so that the measured difference in FRC is divided by 3.

coefficient L1/L2 (ratio of blood-gas partition coefficients): approx. 4
SMILES: FCC(F)(F)F [R 134a, 1,1,1,2-tetrafluoroethane]
